Results on eleven molecules are retold here after US20250296959A1, “B7-H3 TARGETING PEPTIDES AND CONSTRUCTS THEREOF” (Mariana Oncology Inc., priority 2024, published 2025).

Starred links: 1 amine or outer side, 2 acyl side, 3 side chain; linkers in the order of their positions; H or OH if unused. Positions of bridges follow the written chain, without caps; N, C: chain ends. Non-standard residues stand in square brackets, D forms with d. Residues, ends and D or L forms follow the SMILES beside them. Groups on a side chain read outwards from the residue. *: point of attachment. Ala(1-CH2CO2H-4-piperidyl) = N[C@@H](CC1CCN(CC(=O)O)CC1)C(=O)O; Ala(piperidin-4-yl) = O=C([C@H](CC1CCN([*:3])CC1)N[*:1])[*:2]; Phe(3-CH2NH2) = O=C([C@H](Cc1cccc(CN[*:3])c1)N[*:1])[*:2]; DOTA = O=C(O)CN1CCN(CC(=O)O)CCN(CC(=O)*)CCN(CC(=O)O)CC1; NH(CH2CH2O)4CH2CO = O=C(COCCOCCOCCOCCN[*:1])[*:2]; X8 = O=C([C@H](C[C@H]1CC[C@@H](O)CC1)N[*:1])[*:2]; Trp(5-F) = N[C@@H](Cc1c[nH]c2ccc(F)cc12)C(=O)O; γGlu = O=C(O)[C@H](CCC(=O)[*:2])N[*:1]; 1Nal = N[C@@H](Cc1cccc2ccccc12)C(=O)O; Ala(4-THP) = N[C@@H](CC1CCOCC1)C(=O)O; Val(3-OH) = CC(C)(O)[C@H](N)C(=O)O; 4Pal = N[C@@H](Cc1ccncc1)C(=O)O; Chg = N[C@H](C(=O)O)C1CCCCC1; Tle = CC(C)(C)[C@H](N)C(=O)O; hLeu = CC(C)CC[C@H](N)C(=O)O; NMeS = CN[C@@H](CO)C(=O)O; hSer = N[C@@H](CCO)C(=O)O; αMeS = C[C@](N)(CO)C(=O)O; Nle = CCCC[C@H](N)C(=O)O

This assay addresses T1, human 4lg B7-H3 (Homo sapiens, UniProt Q5ZPR3).
T1 sequence (Q5ZPR3 29-534): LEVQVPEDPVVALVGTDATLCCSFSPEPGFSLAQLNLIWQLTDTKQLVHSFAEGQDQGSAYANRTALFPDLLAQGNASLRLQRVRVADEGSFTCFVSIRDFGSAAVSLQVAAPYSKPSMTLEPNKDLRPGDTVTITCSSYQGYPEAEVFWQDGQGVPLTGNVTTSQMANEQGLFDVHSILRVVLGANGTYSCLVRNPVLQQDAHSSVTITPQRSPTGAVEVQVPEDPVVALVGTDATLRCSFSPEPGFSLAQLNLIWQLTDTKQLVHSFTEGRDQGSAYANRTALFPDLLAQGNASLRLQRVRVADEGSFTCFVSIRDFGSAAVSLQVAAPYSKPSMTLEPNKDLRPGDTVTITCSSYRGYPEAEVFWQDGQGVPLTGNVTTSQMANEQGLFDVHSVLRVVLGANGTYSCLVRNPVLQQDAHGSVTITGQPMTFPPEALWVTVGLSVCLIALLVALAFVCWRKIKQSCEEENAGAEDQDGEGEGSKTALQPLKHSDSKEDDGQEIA
As to the kind of experiment: Affinity determination by surface plasmon resonance (SPR) to 4Ig B7-H3. Particulars: 4Ig B7-H3. In general terms: In SPR one partner is held on a chip, and binding of the other changes the refractive index at the surface.

[1] abbreviates: SPR KD—25° C., 25° C. flow cell temperature.
The mark [2] stands for this setting: SPR KD—37° C., 37° C. flow cell temperature.

A word on the Kd: it is the concentration at which binding is half-saturated. Higher therefore signals lower affinity.

For `CCCC[C@H](NC(C)=O)C(=O)N[C@@H](Cc1ccc(O)cc1)C(=O)N[C@H]1CSSC[C@@H](C(=O)N[C@@H](Cc2c[nH]c3ccccc23)C(=O)N[C@@H](Cc2ccccc2)C(=O)N[C@@H](CCC(=O)O)C(N)=O)NC(=O)[C@H](Cc2ccc(O)cc2)NC(=O)[C@H](C(C)C)NC(=O)[C@H](CC(=O)O)NC(=O)[C@H](Cc2ccc(O)cc2)NC(=O)[C@H](CCCCN)NC(=O)CNC(=O)[C@H](C(C)C)NC1=O` [compound 34, Ac-Nle-Y-C-V-G-K-Y-D-V-Y-C-W-F-E-CONH2] (Ac-[Nle]YCVGKYDVYCWFE-NH2; disulfide 3-11), the Kd was 0.001 to 0.01 µM under setting [1] and 0.01 to 0.1 µM under setting [2].
With `CC(=O)N[C@@H](CCC(C)C)C(=O)N[C@@H](Cc1ccc(O)cc1)C(=O)N[C@H]1CSSC[C@@H](C(=O)N[C@@H](Cc2cccc3ccccc23)C(=O)N[C@@H](Cc2ccccc2)C(=O)N[C@H](C(=O)N[C@H](CCCCNC(=O)CC[C@H](NC(=O)CN2CCN(CC(=O)O)CCN(CC(=O)O)CCN(CC(=O)O)CC2)C(=O)O)C(=O)O)C(C)(C)O)NC(=O)[C@H](Cc2ccc(O)cc2)NC(=O)[C@H](C(C)C)NC(=O)[C@H](CC(=O)O)NC(=O)[C@H](CC2CCOCC2)NC(=O)[C@H](CC2CCNCC2)NC(=O)CNC(=O)[C@H](C(C)(C)C)NC1=O` [compound 441, Ac-hLeu-Y-C-Tbg-G-PipAla-ThpA-D-V-Y-C-1Nal-F-hydroxyVal-dLys(gGlu-DOTA)-COOH] (Ac-[hLeu]YC[Tle]G[Ala(piperidin-4-yl)][Ala(4-THP)]DVYC[1Nal]F[Val(3-OH)][dK]([γGlu-DOTA])-OH; disulfide 3-11), the dissociation constant Kd under setting [2] was under 0.001 µM.
Under setting [1], `CC(C)CC[C@H](NC(=O)COCCOCCOCCOCCNC(=O)CN1CCN(CC(=O)O)CCN(CC(=O)O)CCN(CC(=O)O)CC1)C(=O)N[C@@H](Cc1ccc(O)cc1)C(=O)N[C@H]1CSSC[C@@H](C(=O)N[C@@H](Cc2c[nH]c3ccc(F)cc23)C(=O)N[C@@H](Cc2ccccc2)C(=O)N2CCC[C@H]2C(=O)O)NC(=O)[C@H](Cc2ccc(O)cc2)NC(=O)[C@H](C(C)C)NC(=O)[C@H](CC(=O)O)NC(=O)[C@H](CC2CCOCC2)NC(=O)[C@H](CCCCN)NC(=O)CNC(=O)[C@H](C(C)(C)C)NC1=O` [Cpd #306, DOTA-PEG4-hLeu-Y-C-Tbg-G-K-ThpA-D-V-Y-C-5FW-F-Pro-COOH] ({DOTA}-[NH(CH2CH2O)4CH2CO][hLeu]YC[Tle]GK[Ala(4-THP)]DVYC[Trp(5-F)]FP-OH; disulfide 4-12) showed a Kd of 0.01 to 0.1 µM.
On the same count and under the same terms, then `CC(=O)N[C@@H](CCC(C)C)C(=O)N[C@@H](Cc1ccc(O)cc1)C(=O)N[C@H]1CSSC[C@@H](C(=O)N[C@@H](Cc2cccc3ccccc23)C(=O)N[C@@H](Cc2ccccc2)C(=O)N(C)[C@@H](CO)C(=O)N[C@H](CCCCNC(=O)CN2CCN(CC(=O)O)CCN(CC(=O)O)CCN(CC(=O)O)CC2)C(N)=O)NC(=O)[C@H](C2CCCCC2)NC(=O)[C@H](C(C)C)NC(=O)[C@H](CC(=O)O)NC(=O)[C@H](Cc2ccncc2)NC(=O)[C@H](CCCCN)NC(=O)CNC(=O)[C@H](C(C)(C)C)NC1=O` [compound 243, Ac-hLeu-Y-C-Tbg-G-K-4PyA-D-V-Chg-C-1Nal-F-NMeSer-dLys(DOTA)-CONH2] (Ac-[hLeu]YC[Tle]GK[4Pal]DV[Chg]C[1Nal]F[NMeS][dK](DOTA)-NH2; disulfide 3-11), with 0.01 to 0.1 µM; and `CC(=O)N[C@@H](CCC(C)C)C(=O)N[C@@H](Cc1ccc(O)cc1)C(=O)N[C@H]1CSSC[C@@H](C(=O)N[C@@H](Cc2c[nH]c3ccc(F)cc23)C(=O)N[C@@H](CC(C)C)C(=O)N[C@H](C(=O)N[C@H](CCCCNC(=O)CN2CCN(CC(=O)O)CCN(CC(=O)O)CCN(CC(=O)O)CC2)C(=O)O)[C@@H](C)O)NC(=O)[C@H](Cc2ccc(O)cc2)NC(=O)[C@H](C(C)C)NC(=O)[C@H](CC(=O)O)NC(=O)[C@H](CC2CCOCC2)NC(=O)[C@H](CCCCN)NC(=O)CNC(=O)[C@H](C(C)(C)C)NC1=O` [compound 334, Ac-hLeu-Y-C-Tbg-G-K-ThpA-D-V-Y-C-5FW-Leu-Thr-dLys(DOTA)-COOH] (Ac-[hLeu]YC[Tle]GK[Ala(4-THP)]DVYC[Trp(5-F)]LT[dK](DOTA)-OH; disulfide 3-11), with 0.01 to 0.1 µM.
With `CC(=O)N[C@@H](CCC(C)C)C(=O)N[C@@H](Cc1ccc(O)cc1)C(=O)N[C@H]1CSSC[C@@H](C(=O)N[C@@H](Cc2cccc3ccccc23)C(=O)N[C@@H](Cc2ccccc2)C(=O)N2CCC[C@H]2C(N)=O)NC(=O)[C@H](Cc2ccc(O)cc2)NC(=O)[C@H](C(C)C)NC(=O)[C@H](CC(=O)O)NC(=O)[C@H](Cc2cccc(CNC(=O)CC[C@H](NC(=O)CN3CCN(CC(=O)O)CCN(CC(=O)O)CCN(CC(=O)O)CC3)C(=O)O)c2)NC(=O)[C@H](CCCCN)NC(=O)CNC(=O)[C@H](C(C)(C)C)NC1=O` [compound 254, Ac-hLeu-Y-C-Tbg-G-K-MAF(gE-DOTA)-D-V-Y-C-1Nal-F-Pro-CONH2] (Ac-[hLeu]YC[Tle]GK[Phe(3-CH2NH2)]([γGlu-DOTA])DVYC[1Nal]FP-NH2; disulfide 3-11), the Kd under setting [1] lay within 0.001 to 0.01 µM.
On the same count and under the same terms, then `CCCC[C@H](NC(C)=O)C(=O)N[C@@H](Cc1ccc(O)cc1)C(=O)N[C@H]1CSSC[C@@H](C(=O)N[C@@H](Cc2c[nH]c3ccccc23)C(=O)N[C@@H](Cc2ccccc2)C(=O)N[C@H](C(=O)N[C@H](CCCCNC(=O)CN2CCN(CC(=O)O)CCN(CC(=O)O)CCN(CC(=O)O)CC2)C(N)=O)[C@@H](C)O)NC(=O)[C@H](Cc2ccc(O)cc2)NC(=O)[C@H](C(C)C)NC(=O)[C@H](CC(=O)O)NC(=O)[C@H](Cc2ccc(O)cc2)NC(=O)[C@H](CCCNC(=N)N)NC(=O)CNC(=O)[C@H](C(C)C)NC1=O` [compound 85, Ac-Nle-Y-C-V-G-Arg-Y-D-V-Y-C-W-F-Thr-dLys(DOTA)-CONH2] (Ac-[Nle]YCVGRYDVYCWFT[dK](DOTA)-NH2; disulfide 3-11), with 0.001 to 0.01 µM.
Consider `CC(=O)N[C@@H](CCC(C)C)C(=O)N[C@@H](Cc1ccc(O)cc1)C(=O)N[C@H]1CSSC[C@@H](C(=O)N[C@@H](Cc2c[nH]c3ccc(F)cc23)C(=O)N[C@@H](Cc2ccccc2)C(=O)N[C@H](C(=O)N[C@H](CCC(=O)O)C(N)=O)C(C)(C)O)NC(=O)[C@H](Cc2ccc(O)cc2)NC(=O)[C@H](C(C)C)NC(=O)[C@H](CC(=O)O)NC(=O)[C@H](C[C@H]2CC[C@@H](O)CC2)NC(=O)[C@H](CCCCNC(=O)CN2CCN(CC(=O)O)CCN(CC(=O)O)CCN(CC(=O)O)CC2)NC(=O)CNC(=O)[C@H](C(C)(C)C)NC1=O` [compound 424, Ac-hLeu-Y-C-Tbg-G-Lys(DOTA)-4OHCha(pk1)-D-V-Y-C-5FW-F-hydroxyVal-dGlu-CONH2] (Ac-[hLeu]YC[Tle]GK(DOTA)[X8]DVYC[Trp(5-F)]F[Val(3-OH)][dE]-NH2; disulfide 3-11), for which the Kd under setting [2] was in the range of 0.001 to 0.01 µM.
`CC(=O)N[C@@H](CCC(C)C)C(=O)N[C@@H](Cc1ccc(O)cc1)C(=O)N[C@H]1CSSC[C@@H](C(=O)N[C@@H](Cc2c[nH]c3ccc(F)cc23)C(=O)N[C@@H](Cc2ccccc2)C(=O)N[C@H](C(=O)N[C@H](CCCCNC(=O)CN2CCN(CC(=O)O)CCN(CC(=O)O)CCN(CC(=O)O)CC2)C(=O)O)C(C)(C)O)NC(=O)[C@H](Cc2ccc(O)cc2)NC(=O)[C@H](CCO)NC(=O)[C@H](CC(=O)O)NC(=O)[C@H](CC2CCOCC2)NC(=O)[C@H](CCCCN)NC(=O)CNC(=O)[C@H](C(C)(C)C)NC1=O` [compound 373, Ac-hLeu-Y-C-Tbg-G-K-ThpA-D-hSer-Y-C-5FW-F-hydroxyVal-dLys(DOTA)-COOH] (Ac-[hLeu]YC[Tle]GK[Ala(4-THP)]D[hSer]YC[Trp(5-F)]F[Val(3-OH)][dK](DOTA)-OH; disulfide 3-11) returned a Kd under setting [2] of 0.001 to 0.01 µM.
Under setting [1], `CC(=O)N[C@@H](CCC(C)C)C(=O)N[C@@H](Cc1ccc(O)cc1)C(=O)N[C@H]1CSSC[C@@H](C(=O)N[C@@H](Cc2c[nH]c3ccc(F)cc23)C(=O)N[C@@H](Cc2ccccc2)C(=O)N[C@@](C)(CO)C(=O)N[C@H](CCCCNC(=O)CN2CCN(CC(=O)O)CCN(CC(=O)O)CCN(CC(=O)O)CC2)C(N)=O)NC(=O)[C@H](Cc2ccc(O)cc2)NC(=O)[C@H](C(C)C)NC(=O)[C@H](CC(=O)O)NC(=O)[C@H](Cc2ccc(O)cc2)NC(=O)[C@H](CCCCN)NC(=O)CNC(=O)[C@H](C(C)C)NC1=O` [compound 147, Ac-hLeu-Y-C-V-G-K-Y-D-V-Y-C-5FW-F-aMeSer-dLys(DOTA)-CONH2] (Ac-[hLeu]YCVGKYDVYC[Trp(5-F)]F[αMeS][dK](DOTA)-NH2; disulfide 3-11) showed a Kd of 0.001 to 0.01 µM.
As to `CC(=O)N[C@@H](CCC(C)C)C(=O)N[C@@H](Cc1ccc(O)cc1)C(=O)N[C@H]1CSSC[C@@H](C(=O)N[C@@H](Cc2c[nH]c3ccc(F)cc23)C(=O)N[C@@H](Cc2ccccc2)C(=O)N[C@H](C(N)=O)C(C)(C)O)NC(=O)[C@H](Cc2ccc(O)cc2)NC(=O)[C@H](C(C)C)NC(=O)[C@H](CC(=O)O)NC(=O)[C@H](CC2CCN(CC(=O)O)CC2)NC(=O)[C@H](CCCCNC(=O)CN2CCN(CC(=O)O)CCN(CC(=O)O)CCN(CC(=O)O)CC2)NC(=O)CNC(=O)[C@H](C(C)(C)C)NC1=O` [compound 419, Ac-hLeu-Y-C-Tbg-G-Lys(DOTA)-Pip(CH2COOH)Ala-D-V-Y-C-5FW-F-hydroxyVal-CONH2] (Ac-[hLeu]YC[Tle]GK(DOTA)[Ala(1-CH2CO2H-4-piperidyl)]DVYC[Trp(5-F)]F[Val(3-OH)]-NH2; disulfide 3-11), the Kd under setting [2] lay within 0.001 to 0.01 µM.
